In patent US20160068861A1, “METHOD FOR DETECTING PROTEIN STABILITY AND USES THEREOF” (priority 2013, published 2016):

Legend:
CZ-1/R cells = assay: MTT detection of cell viability, BTZ-resistant cell line; format: cell-based, human
Description: (§1) CZ-1 cells can be obtained from Hou Jian Laboratory of Shanghai Changzheng Hospital (Hou J, Lin F Y, Zhang B, Zhang L Z, Ding S Q, Establishment and biological characteristics of human multiple myeloma cell line CZ-1. Chinese Medical Journal [2004, 117(1):115-119]); CZ-1/R cell lines was constructed by the inventor's Laboratories, and can be obtained from the inventor's laboratory (http://www.sibcb.ac.cn/PI.asp?id=129).
(§2) Plates were incubated for 24-72 hours. To each well was added 20 ul MTT (3-(4,5-dimethyl-2-thiazole)-2,5-diphenyl tetrazolium bromide) solution, culture was continued for another 4 hrs. To each well was added 150 ul of dimethyl sulfoxide, shaken on a shaker at low speed for 10 mins for thoroughly dissolving the crystals. Absorbance of each well was measured on an enzyme-linked immune detector at OD 490 nm (570 nm).

CZ-1 cells = assay: MTT detection of cell viability, BTZ-sensitive cell line; format: cell-based, human
Description: as §1, §2

[1] = BTZ in combination with 17-AAG, FIG. 9
[2] = BTZ in combination with C75, FIG. 9

Measured: killing effects (MTT)

CC(C)C[C@H](NC(=O)[C@H](Cc1ccccc1)NC(=O)c1cnccn1)B(O)O [BTZ, Bortezomib]
significant killing effects: CZ-1/R cells; [1] | CZ-1/R cells; [2] | CZ-1 cells; [1] | CZ-1 cells; [2]
